Measurements reported in paper PMC10095357, “Inhibition of Soluble Epoxide Hydrolase Activity by Components of Glycyrrhiza uralensis” (International Journal of Molecular Sciences, 2023).
“Also recorded” adds a separate entry of the source. Where two headings read alike, the source gives them in different places.

Key:
[1] = molecular target: T1, Human recombinant sEH (Homo sapiens, UniProt P34913); assay: sEH enzyme kinetics (Lineweaver–Burk and Dixon plots); type: biochemical; details: for Ki: Dixon plot analysis; for Binding Mode: Lineweaver–Burk plot
T1 construct: purchased Cayman Chemical (Ann Arbor, MI, USA) 10011669
T1 sequence (P34913 1-555): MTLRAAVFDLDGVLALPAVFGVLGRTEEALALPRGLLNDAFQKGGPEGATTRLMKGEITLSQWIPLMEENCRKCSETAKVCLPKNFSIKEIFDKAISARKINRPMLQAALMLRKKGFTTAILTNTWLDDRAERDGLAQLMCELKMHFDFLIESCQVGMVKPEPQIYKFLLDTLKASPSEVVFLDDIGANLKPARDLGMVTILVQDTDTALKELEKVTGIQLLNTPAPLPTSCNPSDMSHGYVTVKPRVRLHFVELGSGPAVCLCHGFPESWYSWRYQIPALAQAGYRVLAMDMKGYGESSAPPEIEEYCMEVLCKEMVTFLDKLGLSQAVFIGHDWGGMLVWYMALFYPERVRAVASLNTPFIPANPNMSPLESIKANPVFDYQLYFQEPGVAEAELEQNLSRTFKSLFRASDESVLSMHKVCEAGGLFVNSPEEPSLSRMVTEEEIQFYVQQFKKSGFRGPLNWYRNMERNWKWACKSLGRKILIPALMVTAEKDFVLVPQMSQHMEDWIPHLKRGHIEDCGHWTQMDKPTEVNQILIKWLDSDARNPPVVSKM

[2] = molecular target: T1, Human recombinant sEH; assay: sEH assay (fluorescent substrate hydrolysis, inhibitory activity and IC50); type: biochemical; details: for inhibition at 100 µM: read-out: Inhibitory Activity at 100 μM (%); for IC50: sEH inhibition
[3] = compound at 100 μM, tested three times

Molecule | Ki [1] | Binding Mode [1] | inhibition at 100 µM [2, 3] | IC50 [2] | sEH inhibitory effect (in words) [2] | inhibition at 100 µM [2] | sEH inhibitory effect (in words) ([2]; conclusion statement) | Inhibitory Activity at 100 μM (%) [2, 3]
COc1c(CC=C(C)C)c(O)cc2oc(=O)c3c4ccc(O)cc4oc3c12 [Compound 9, glycyrol] | 41.1 µM | noncompetitive inhibitors; also recorded: non-competitive | 69.5 ± 0.5% | 42.5 ± 1.5 µM |  |  |  | 
O=C1C[C@@H](c2ccc(O)cc2)Oc2cc(O)ccc21 [Compound 1, liquiritigenin] | 63.1 µM | noncompetitive inhibitors; also recorded: non-competitive |  | 40.1 ± 1.2 µM | moderate inhibitory effects | 61.5 ± 1.2% |  | 
O=C(/C=C/c1ccc(O)cc1)c1ccc(O)cc1O [Compound 4, isoliquiritigenin] | 24.2 µM | Noncompetitive |  | 17.6 ± 0.6 µM |  |  |  | 
O=C1C[C@@H](c2ccc(O[C@@H]3O[C@H](CO)[C@@H](O)[C@H](O)[C@H]3O)cc2)Oc2cc(O)ccc21 [Compound 2, liquiritin] |  |  | 46.8 ± 0.8% |  |  |  |  | 
CC(C)=CCc1cc(-c2coc3cc(O)c(CC=C(C)C)c(O)c3c2=O)cc(O)c1O [Compound 11, isoangustone A] | 75.6 µM | noncompetitive inhibitors; also recorded: non-competitive | 68.4 ± 3.1% | 85.7 ± 1.2 µM |  |  | moderate inhibitory effects | 
COc1ccc(-c2coc3cc(O[C@@H]4O[C@H](CO)[C@@H](O)[C@H](O)[C@H]4O)ccc3c2=O)cc1 [Compound 8, ononin] | 54.4 µM | competitive inhibitors | 60.7 ± 1.3% | 35.7 ± 0.7 µM |  |  |  | 
liquiritin apioside [Compound 3] |  | competitive inhibitors |  |  |  |  |  | 57.6 ± 1.1%
COc1cc(O)ccc1C(=O)/C=C/c1ccc(O)cc1 [Compound 7, 2′-methoxyisoliquiritigenin] | 19.8 µM | competitive inhibitors | 85.1 ± 0.3% | 16.2 ± 0.3 µM |  |  |  | 
O=C(/C=C/c1ccc(O[C@@H]2O[C@H](CO)[C@@H](O)[C@H](O)[C@H]2O)cc1)c1ccc(O)cc1O [Compound 5, isoliquiritin] | 48.8 µM | Noncompetitive | 80.2 ± 0.3% | 25.8 ± 0.2 µM |  |  |  | 
COc1c(CC=C(C)C)c(O)cc2oc(=O)c(-c3ccc(O)cc3O)cc12 [Compound 10, glycycoumarin] | 2 µM | competitive inhibitors | > 100% | 1.9 ± 0.2 µM |  |  | potent effect | 
isoliquiritin apioside [Compound 6] |  | Noncompetitive |  |  |  |  |  | 79.3 ± 1.4%
CC1(C)[C@@H](O[C@H]2O[C@H](C(=O)O)[C@@H](O)[C@H](O)[C@H]2O[C@@H]2O[C@H](C(=O)O)[C@@H](O)[C@H](O)[C@H]2O)CC[C@]2(C)[C@H]3C(=O)C=C4[C@@H]5C[C@@](C)(C(=O)O)CC[C@]5(C)CC[C@@]4(C)[C@]3(C)CC[C@@H]12 [Glycyrrhizin, reference compound] |  |  | 18.4% |  |  |  | lacked such an effect | 
